Values after ≈ are worked out from the molar mass of the structure shown.
Key:
[1] = system: p38; assay: p38 activation in LS174T cells; format: cell-based, human; details: 3 hours; C3 5, 10 μg/ml; Cisplatin 25, 50 μg/ml
Experimental: (§1) P38 was not affected by C3 but was activated by Cisplatin.
The stress related p38 pathway was also investigated in LS174T cells following anti-Cripto-1 Mab treatment. p38 activation occurred following 48 hours of Mab exposure, when the level of activated JNK declined. p38 was further activated at 72 hours when elevated JNK returned to basal level (FIG. 8D). […] The potentiation of Cisplatin cytotoxicity by anti-Cripto-1 Mabs (FIG. 1) is accompanied by an increase in JNK phosphorylation (FIG. 8A) and p38 MAPK (FIG. 8B).

[2] = system: JNK/SAPK; assay: JNK activation in LS174T cells; format: cell-based, human; details: 3 hours; C3 5, 10 μg/ml; Cisplatin 25, 50 μg/ml
Experimental: as §1
The role of JNK and p38 activation in anti-Cripto-1 mediated apoptosis was investigated in colon cancer LS17T cell line using different concentration of Mabs and various times of incubation. In particular, JNK/SPAK was activated in LS174T cells following 3 hours incubation with anti-Cripto-1 Mab in a dose dependent manner (FIG. 8A). JNK activation was at the highest level after 24 hours of exposure (FIGS. 8B and 8D), and declined within 48 h, returning to basal level at 72 hours of incubation (FIG. 8D) indicating JNK activation by anti-Cripto1 antibodies is time dependent

[3] = system: CEM/A7; assay: Growth of leukaemia cell line CEM/A7; format: cell-based, human
From the text: (§2) Therefore, C4 can overcome drug resistance which is a common problem in acute leukemia.

[4] = system: mouse thyoma E3 cells; assay: Growth of mouse thymoma E3 cells; format: cell-based; details: read-out: Ic50 concentration
From the text: as §2

[5] = system: CEM/A7R; assay: Growth of drug resistant leukaemia cell line CEM/A7R; format: cell-based, human
From the text: Thus, this cell line is normally resistant to a variety of naturally derived chemotherapeutic agents.
as §2

Compound	p38 activation [1]	JNK activation [2]	resistance to Epirubicin compared to E3 [3]	IC50 [4]	resistance to Epirubicin compared to E3 [5]
N.N.[Cl][Pt][Cl] [Cisplatin]	activated	induced	–	–	–
COc1cccc2c1C(=O)c1c(O)c3c(c(O)c1C2=O)C[C@@](O)(C(=O)CO)C[C@@H]3O[C@H]1C[C@H](N)[C@@H](O)[C@H](C)O1 [Epirubicin]	–	–	around 80 fold	0.02 µg/mL (≈ 0.0368 µM)	~40 fold

From patent US7318924B2, “Antibodies against cancer” (The Austin Research Institute, priority 2001, dated 2008)
